Patent publication US20240158446A1, “CYCLIC COMPOUND HAVING SELECTIVE INHIBITORY ACTION ON KRAS OVER HRAS AND NRAS” (CHUGAI SEIYAKU KABUSHIKI KAISHA, priority 2021, published 2024)

Experiments:
[1] = target: GDP-bound HRAS wild-type protein (Homo sapiens, UniProt P01112); assay: Binding to HRAS by surface plasmon resonance (SPR), Single Cycle Kinetics; settings: SPR, GDP-bound HRAS wild-type protein vs GDP-bound KRAS wild-type protein
[2] = target: GDP-bound NRAS wild-type protein (Homo sapiens, UniProt P01111); assay: Binding to NRAS by surface plasmon resonance (SPR), Single Cycle Kinetics; settings: SPR, GDP-bound NRAS wild-type protein vs GDP-bound KRAS wild-type protein
GDP-bound NRAS wild-type protein, sequence (P01111 whole entry): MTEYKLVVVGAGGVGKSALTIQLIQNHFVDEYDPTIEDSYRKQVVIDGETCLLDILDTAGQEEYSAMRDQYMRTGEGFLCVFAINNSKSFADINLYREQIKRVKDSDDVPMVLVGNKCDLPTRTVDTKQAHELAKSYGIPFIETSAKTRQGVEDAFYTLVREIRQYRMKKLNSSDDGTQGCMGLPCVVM

[3] = target: GDP-bound KRAS wild-type protein (Homo sapiens, UniProt P01116); assay: Binding to KRAS by surface plasmon resonance (SPR), Single Cycle Kinetics; settings: SPR, Single Cycle Kinetics, GDP-bound KRAS wild-type protein; read-out: KRAS KD
GDP-bound KRAS wild-type protein, sequence (P01116 whole entry): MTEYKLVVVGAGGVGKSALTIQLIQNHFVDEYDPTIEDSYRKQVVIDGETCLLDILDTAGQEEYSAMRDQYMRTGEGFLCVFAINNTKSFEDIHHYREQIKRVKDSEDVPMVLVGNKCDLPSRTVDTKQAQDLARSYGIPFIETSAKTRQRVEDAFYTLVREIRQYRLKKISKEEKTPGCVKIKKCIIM

GDP-bound HRAS wild-type protein, sequence (P01112 whole entry): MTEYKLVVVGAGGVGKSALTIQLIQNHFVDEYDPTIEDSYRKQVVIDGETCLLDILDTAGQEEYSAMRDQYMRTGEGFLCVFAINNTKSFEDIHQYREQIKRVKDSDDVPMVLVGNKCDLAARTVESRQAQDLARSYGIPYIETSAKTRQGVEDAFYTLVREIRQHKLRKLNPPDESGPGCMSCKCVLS

Row | Kd [3] [nM] | Structure (SMILES) | HRAS/KRAS (ratio of KD value for HRAS to KD value for KRAS) [1] | NRAS/KRAS (ratio of KD value for NRAS to KD value for KRAS) [2]
1 | 0.49 | CCC[C@H]1C(=O)N[C@@H]([C@@H](C)CC)C(=O)N(C2CC2)CC(=O)N(C)[C@H]2C/C=C\CCN(C2=O)[C@@H](Cc2ccc(C(F)(F)F)cc2)C(=O)N(C)CC(=O)N[C@@H](CCc2ccc(C(F)(F)F)c(OC)c2)C(=O)N2C[C@H](OCC)C[C@H]2C(=O)N(C)C2(CCC2)C(=O)N(C)[C@@H](C(CC)CC)C(=O)N(C)[C@H](C(=O)N(C)C)CC(=O)N1C [PP2313] | A (a compound having 10 or more and less than 20 is denoted as A) | AA (a compound having 20 or more is denoted as AA)
2 | 0.12 | CCC[C@H]1C(=O)N[C@@H]([C@@H](C)CC)C(=O)N(C2CC2)CC(=O)N(C)[C@H]2C/C=C\CCN(C2=O)[C@@H](Cc2ccc(C(F)(F)F)cc2)C(=O)N(C)CC(=O)N[C@@H](CCc2ccc(C(F)(F)F)c(OC)c2)C(=O)N2C[C@H](OCC)C[C@H]2C(=O)N(C)C2(CCC2)C(=O)N(C)[C@@H](C2CCCC2)C(=O)N(C)[C@H](C(=O)N(C)C)CC(=O)N1C [PP2316, (2S,8S,12R,14S,20S,23S,27S,30S,36S,38Z)-20-cyclopentyl-32-cyclopropyl-12-ethoxy-8-[2-[3-methoxy-4-(trifluoromethyl)phenyl]ethyl]-N,N,4,16,19,22,26,35-octamethyl-30-[(1S)-1-methylpropyl]-3,6,9,15,18,21,25,28,31,34,42-undecaoxo-27-propyl-2-[[4-(trifluoromethyl)phenyl]methyl]spiro[1,4,7,10,16,19,22,26,29,32,35-undecazatricyclo[34.5.1.0^10,14]dotetracont-38-ene-17,1′-cyclobutane]-23-carboxamide] | A (a compound having 10 or more and less than 20 is denoted as A) | A (a compound having 10 or more and less than 20 is denoted as A)
3 | 0.4 | CCC[C@H]1C(=O)N[C@@H]([C@@H](C)CC)C(=O)N2CCC[C@H]2C(=O)N(C)[C@H]2C/C=C\CCN(C2=O)[C@@H](Cc2ccc(C(F)(F)F)cc2)C(=O)N(C)CC(=O)N[C@@H](CCc2ccc(C(F)(F)F)c(OC)c2)C(=O)N2C[C@H](OCC)C[C@H]2C(=O)N(C)C2(CCC2)C(=O)N(C)[C@@H](C(CC)CC)C(=O)N(C)[C@H](C(=O)N(C)C)CC(=O)N1C [PP2317] | A (a compound having 10 or more and less than 20 is denoted as A) | A (a compound having 10 or more and less than 20 is denoted as A)
4 | 0.35 | CCOC[C@H]1C(=O)N[C@@H]([C@@H](C)CC)C(=O)N2CCC[C@H]2C(=O)N(C)[C@H]2C/C=C\CCN(C2=O)[C@@H](Cc2ccc(C(F)(F)F)cc2)C(=O)N(C)CC(=O)N[C@@H](CCc2ccc(C(F)(F)F)c(OC)c2)C(=O)N2C[C@H](OCC)C[C@H]2C(=O)N(C)C2(CCC2)C(=O)N(C)[C@@H](C(CC)CC)C(=O)N(C)[C@H](C(=O)N(C)C)CC(=O)N1C [PP2319] | A (a compound having 10 or more and less than 20 is denoted as A) | AA (a compound having 20 or more is denoted as AA)
5 | 0.11 | CCC[C@H]1C(=O)N[C@@H]([C@@H](C)CC)C(=O)N2CCC[C@H]2C(=O)N(C)[C@H]2C/C=C\CCN(C2=O)[C@@H](Cc2ccc(C(F)(F)F)cc2)C(=O)N(C)CC(=O)N[C@@H](CCc2ccc(C(F)(F)F)c(OC)c2)C(=O)N2C[C@H](OCC)C[C@H]2C(=O)N(C)C2(CCC2)C(=O)N(C)[C@@H](C2CCCC2)C(=O)N(C)[C@H](C(=O)N(C)C)CC(=O)N1C [PP2320, (1S,4S,10S,13S,17S,20S,26S,28R,32S,38S,42Z)-20-cyclopentyl-28-ethoxy-32-[2-[3-methoxy-4-(trifluoromethyl)phenyl]ethyl]-N,N,2,14,18,21,24,36-octamethyl-10-[(1S)-1-methylpropyl]-3,9,12,15,19,22,25,31,34,37,45-undecaoxo-13-propyl-38-[[4-(trifluoromethyl)phenyl]methyl]spiro[2,8,11,14,18,21,24,30,33,36,39-undecazatetracyclo[37.5.1.0^4,8.0^26,30]pentatetracont-42-ene-23,1′-cyclobutane]-17-carboxamide] | A (a compound having 10 or more and less than 20 is denoted as A) | A (a compound having 10 or more and less than 20 is denoted as A)
6 | 0.18 | CCCOC[C@H]1C(=O)N[C@@H]([C@@H](C)CC)C(=O)N2CCC[C@H]2C(=O)N(C)[C@H]2C/C=C\CCN(C2=O)[C@@H](Cc2ccc(C(F)(F)F)cc2)C(=O)N(C)CC(=O)N[C@@H](CCc2ccc(C(F)(F)F)c(OC)c2)C(=O)N2C[C@H](OCC)C[C@H]2C(=O)N(C)C2(CCC2)C(=O)N(C)[C@@H](C2CCCC2)C(=O)N(C)[C@H](C(=O)N(C)C)CC(=O)N1C [PP2322] | B (a compound having 3 or more and less than 10 is denoted as B) | A (a compound having 10 or more and less than 20 is denoted as A)
7 | 0.5 | CCCOC[C@H]1C(=O)N[C@@H]([C@@H](C)CC)C(=O)N(C2CC2)CC(=O)N(C)[C@H]2C/C=C\CCN(C2=O)[C@@H](Cc2ccc(C)cc2)C(=O)N(C)CC(=O)N[C@@H](CCc2ccc(C(F)(F)F)c(OC)c2)C(=O)N2C[C@H](OCC)C[C@H]2C(=O)N(C)C2(CCC2)C(=O)N(C)[C@@H](C(CC)CC)C(=O)N(C)[C@H](C(=O)N(C)C)CC(=O)N1C [PP2327] | A (a compound having 10 or more and less than 20 is denoted as A) | A (a compound having 10 or more and less than 20 is denoted as A)
8 | 0.079 | CCC[C@H]1C(=O)N[C@@H]([C@@H](C)CC)C(=O)N(C2CC2)CC(=O)N(C)[C@H]2C/C=C\CCN(C2=O)[C@@H](Cc2ccc(C)cc2)C(=O)N(C)CC(=O)N[C@@H](CCc2ccc(C(F)(F)F)c(OC)c2)C(=O)N2C[C@H](OCC)C[C@H]2C(=O)N(C)C2(CCC2)C(=O)N(C)[C@@H](C2CCCC2)C(=O)N(C)[C@H](C(=O)N(C)C)CC(=O)N1C [PP2328, (2S,8S,12R,14S,20S,23S,27S,30S,36S,38Z)-20-cyclopentyl-32-cyclopropyl-12-ethoxy-8-[2-[3-methoxy-4-(trifluoromethyl)phenyl]ethyl]-N,N,4,16,19,22,26,35-octamethyl-30-[(1S)-1-methylpropyl]-3,6,9,15,18,21,25,28,31,34,42-undecaoxo-27-propyl-2-(p-tolylmethyl)spiro[1,4,7,10,16,19,22,26,29,32,35-undecazatricyclo[34.5.1.0^10,14]dotetracont-38-ene-17,1′-cyclobutane]-23-carboxamide] | A (a compound having 10 or more and less than 20 is denoted as A) | A (a compound having 10 or more and less than 20 is denoted as A)
9 | 0.42 | CCC[C@H]1C(=O)N[C@@H]([C@@H](C)CC)C(=O)N2CCC[C@H]2C(=O)N(C)[C@H]2C/C=C\CCN(C2=O)[C@@H](Cc2ccc(C)cc2)C(=O)N(C)CC(=O)N[C@@H](CCc2ccc(C(F)(F)F)c(OC)c2)C(=O)N2C[C@H](OCC)C[C@H]2C(=O)N(C)C2(CCC2)C(=O)N(C)[C@@H](C(CC)CC)C(=O)N(C)[C@H](C(=O)N(C)C)CC(=O)N1C [PP2329] | A (a compound having 10 or more and less than 20 is denoted as A) | A (a compound having 10 or more and less than 20 is denoted as A)
10 | 0.11 | CCCOC[C@H]1C(=O)N[C@@H]([C@@H](C)CC)C(=O)N(C2CC2)CC(=O)N(C)[C@H]2C/C=C\CCN(C2=O)[C@@H](Cc2ccc(C)cc2)C(=O)N(C)CC(=O)N[C@@H](CCc2ccc(C(F)(F)F)c(OC)c2)C(=O)N2C[C@H](OCC)C[C@H]2C(=O)N(C)C2(CCC2)C(=O)N(C)[C@@H](C2CCCC2)C(=O)N(C)[C@H](C(=O)N(C)C)CC(=O)N1C [PP2330] | A (a compound having 10 or more and less than 20 is denoted as A) | A (a compound having 10 or more and less than 20 is denoted as A)
11 | 0.36 | CCCOC[C@H]1C(=O)N[C@@H]([C@@H](C)CC)C(=O)N2CCC[C@H]2C(=O)N(C)[C@H]2C/C=C\CCN(C2=O)[C@@H](Cc2ccc(C)cc2)C(=O)N(C)CC(=O)N[C@@H](CCc2ccc(C(F)(F)F)c(OC)c2)C(=O)N2C[C@H](OCC)C[C@H]2C(=O)N(C)C2(CCC2)C(=O)N(C)[C@@H](C(CC)CC)C(=O)N(C)[C@H](C(=O)N(C)C)CC(=O)N1C [PP2331] | A (a compound having 10 or more and less than 20 is denoted as A) | AA (a compound having 20 or more is denoted as AA)
12 | 0.1 | CCC[C@H]1C(=O)N[C@@H]([C@@H](C)CC)C(=O)N2CCC[C@H]2C(=O)N(C)[C@H]2C/C=C\CCN(C2=O)[C@@H](Cc2ccc(C)cc2)C(=O)N(C)CC(=O)N[C@@H](CCc2ccc(C(F)(F)F)c(OC)c2)C(=O)N2C[C@H](OCC)C[C@H]2C(=O)N(C)C2(CCC2)C(=O)N(C)[C@@H](C2CCCC2)C(=O)N(C)[C@H](C(=O)N(C)C)CC(=O)N1C [PP2332] | B (a compound having 3 or more and less than 10 is denoted as B) | A (a compound having 10 or more and less than 20 is denoted as A)
13 | 0.13 | CCCOC[C@H]1C(=O)N[C@@H]([C@@H](C)CC)C(=O)N2CCC[C@H]2C(=O)N(C)[C@H]2C/C=C\CCN(C2=O)[C@@H](Cc2ccc(C)cc2)C(=O)N(C)CC(=O)N[C@@H](CCc2ccc(C(F)(F)F)c(OC)c2)C(=O)N2C[C@H](OCC)C[C@H]2C(=O)N(C)C2(CCC2)C(=O)N(C)[C@@H](C2CCCC2)C(=O)N(C)[C@H](C(=O)N(C)C)CC(=O)N1C [PP2334] | B (a compound having 3 or more and less than 10 is denoted as B) | A (a compound having 10 or more and less than 20 is denoted as A)
